In assay [1] the test system is Herpes Simplex Virus Type 2 (HSV-2) Strain G (ATCC VR-734). The experiment in a line: Protective action in a model of herpetic infection in mice. Type of assay: in vivo, White outbred mice. Particulars: HSV-2 vaginal infection, 1.25 mg/kg (Acyclovir 50 mg/kg); for N14, number of animal deaths in a group on the 14th day after infection: 20 mice per group; for N14, number of animal deaths in a group on the 14th day after infection / M, mortality rate: i.p. once a day for 3 days; for M, mortality rate / IP, index of protection: 14 days follow-up; for IP, index of protection: relative to control mortality 60.0%. As to the method:
The developed compositions were assessed for their protective action on the basis of a herpetic infection model. The following reference products were used: 1/Allokin-alfa, Lyophilisate for Solution for Subcutaneous Administration, a medicinal product used to treat genital herpes, containing 1 mg of alloferon per ampoule; 2/Acyclovir, a medicinal product used in the conventional herpes therapy.
White outbred mice (females) weighing 16 to 20 g were received from Rappolovo Nursery (Leningrad Oblast) and maintained on a standard diet under controlled vivarium conditions. The animals for the experimental groups were selected on a random basis. The animals were divided into 5 groups of 20 animals each: four experimental groups in which the animals received injections of Composition 1, Composition 2, Allokin-alfa, and Acyclovir, respectively, and one control group in which the animals received injections of 0.9% sodium chloride solution.
The study was made with the use of Herpes Simplex Virus Type 2 (HSV-2) Strain G (ATCC VR-734). The infection was introduced vaginally. Vaginal epithelium was injured with the use of a vaginal smearing scarifier, after which the animals were infected with the virus at a dose of 1.7×10^5TCID50 in the amount of 30 mcL.
Allokin-alfa and Compositions 1 and 2 were administered to the animals intraperitoneally at a dose of 1.25 mg/kg once a day for 3 days after the infection introduction. Acyclovir was administered in accordance with the same scheme at a dose of 50 mg/kg. The control group received injections of 0.9% sodium chloride solution.
The animals were followed up for 14 days. Mortality in the control and experimental groups were recorded on a daily basis. Based on the data so obtained, mortality rates M (the ratio of animal deaths over 14 days to the total number of infected animals in a group) and the index of protection IP (the ratio between the difference of the control and experimental groups' mortality rates and the control group lethality rate) were calculated.

The subject of another assay is Interferon Gamma. Kind of assay: Interferon gamma (IFN-γ) induction in mouse blood serum, solid phase immunoassay. It counts as in vivo. Particulars: BALB/C mice, subcutaneous single dose 1 mg alloferon/kg; serum 3 hours after administration.
The subject of a further assay is Interleukin 18. Kind of assay: Interleukin 18 (IL-18) induction in mouse blood serum. It counts as in vivo. Particulars: BALB/C mice, subcutaneous single dose 1 mg alloferon/kg; serum 36 hours after administration.

Procedure for Interferon Gamma: Furthermore, cytokine induction caused by using both components (alloferon and the zinc salt), where administered to a body separately in time, were determined. Six samples were tested: • 1. Alloferon (Allokin-alfa, Lyophilisate for Solution for Subcutaneous Administration)—a reference product, • 2. Composition 1, • 3. Composition 2, • 4. […] 0.9% sodium chloride solution—control.
(§1) Samples 1, 2, 3, and 5 contained alloferon at the concentration of 1 mg/mL. The alloferon solution in Samples 1 and 5 was produced by dissolving the contents of an Allokin-alfa ampoule (1 mg of alloferon) in 1 mL of 0.9% sodium chloride solution. […] To determine the background content of IFN-γ and IL-18 in the subject animals' blood serum, a 0.9% sodium chloride solution was used.
(§2) The experiments enrolled BALB/C mice, females, weighing 16 to 22 grams, 18 weeks of age, divided into 6 groups of 15 individuals each. The samples were administered subcutaneously in a single dose of 1 mg of alloferon per 1 kg laboratory animal body weight. Sample 5 components were administered separately, one 15 minutes after the other.
Procedure for Interleukin 18: Six samples were tested: • 1. Alloferon (Allokin-alfa, Lyophilisate for Solution for Subcutaneous Administration)—a reference product, • 2. Composition 1, • 3. Composition 2, • 4. […] 0.9% sodium chloride solution—control.
as §1, §2
In case of the control group, the confidence interval was calculated based on measurements of the same sample dilutions. For the experimental groups, the confidence interval was calculated based on three samples from three animals for each measuring point.

With `Nc1nc2c(ncn2COCCO)c(=O)[nH]1` [Acyclovir], in assay [1], the “N14, number of animal deaths in a group on the 14th day after infection” value is listed as 3; the “M, mortality rate” value came out at 15.0%; the “IP, index of protection” value was determined as 75.0%.

As to `CC(=O)[O-].CC(=O)[O-].[Zn+2]` [Zinc acetate], in the assay on Interferon Gamma, the “Interferon Gamma, after 3 hours (mg/mL of blood serum)” value is 82 ± 8 mg/mL of blood serum. For the same compound, the “Interleukin 18, after 36 hours (mg/mL of blood serum)” value in the assay on Interleukin 18 is given as 194 ± 12 mg/mL of blood serum.

For the compound alloferon, the “Interferon Gamma, after 3 hours (mg/mL of blood serum)” value with Interferon Gamma is listed as 95 ± 16 mg/mL of blood serum. Moreover, the “Interleukin 18, after 36 hours (mg/mL of blood serum)” value with Interleukin 18 was 360 ± 20 mg/mL of blood serum. In assay [1], the “N14, number of animal deaths in a group on the 14th day after infection” value amounted to 4; the “M, mortality rate” value was determined as 20.0%; the “IP, index of protection” value amounted to 66.7%.

Source of the values: patent publication US20220265706A1, “PHARMACEUTICAL COMPOSITION CONTAINING COMPLEXES OF ALLOFERON AND ZINC” (priority 2019, published 2022).
